According to patent publication US8802597B2, “Herbicidal pyrimidines” (E I du Pont de Nemours and Company, priority 2003, dated 2014):

How the values were obtained:
Format in all cases: in vivo
wild oat (Avena fatua) = assay: Test B postemergence
Method in brief: (§1)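 Following sowing, compounds in a surfactant-bearing non-phytotoxic solvent were applied preemergence; emerged plants 2 to 18 cm high got postemergence treatment concurrently. Evaluation: 13 to 15 days later, greenhouse, 0–100 visual scale.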

[1] = test system: blackgrass (Alopecurus myosuroides); assay: Test B postemergence
Method in brief: as §1

[2] = test system: barnyardgrass (Echinochloa crus-galli); assay: Test B flooded paddy test; settings: Flood, 1000 g ai/ha; scale 0 (no effect) to 100 (complete control)
Method in brief: (§2)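 Plants were grown to the 2-leaf stage before treatment, then kept in a greenhouse for 13 to 15 days. Injury was rated visually against untreated controls on a 0 to 100 scale, where 0 is no effect and 100 is complete control.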

rice (Oryza sativa) [3] = assay: Test B flooded paddy test; settings: Flood, 1000 g ai/ha; scale 0 to 100
Method in brief: as §2

[4] = test system: duck salad (Heteranthera limosa); assay: Test B flooded paddy test; settings: Flood, 1000 g ai/ha; scale 0 to 100
Method in brief: as §2

[5] = test system: umbrella sedge (Cyperus difformis); assay: Test B flooded paddy test; settings: Flood, 1000 g ai/ha; scale 0 to 100
Method in brief: as §2

[6] = test system: barnyardgrass (Echinochloa crus-galli); assay: Test C flooded paddy test; settings: Flood
Method: (§3) At the same time, plants selected from these crop and weed species and also winter barley (Hordeum vulgare), blackgrass (Alopecurus myosuroides), canarygrass (Phalaris minor), chickweed (Stellaria media), downy brome (Bromus tectorum), green foxtail (Setaria viridis), Italian ryegrass (Lolium multiflorum), wheat (Triticum aestivum), wild oat (Avena fatua) and windgrass (Apera spica-venti) were treated with postemergence applications of some of the test chemicals formulated in the same manner. Plants ranged in height from 2 to 18 cm (1- to 4-leaf stage) for postemergence treatments. Plant species in the flooded paddy test consisted of rice (Oryza sativa), umbrella sedge (Cyperus difformis), duck salad (Heteranthera limosa) and barnyardgrass (Echinochloa crus-galli) grown to the 2-leaf stage for testing. Treated plants and controls were maintained in a greenhouse for 12 to 14 days, after which time all species were compared to controls and visually evaluated. Plant response ratings, summarized in Table C, are based on a scale of 0 to 100 where 0 is no effect and 100 is complete control. A dash (-) response means no test result.

rice (Oryza sativa) [7] = assay: Test C flooded paddy test; settings: Flood, scale 0 to 100
Method: as §3

[8] = test system: duck salad (Heteranthera limosa); assay: Test C flooded paddy test; settings: Flood, scale 0 to 100
Method: as §3

[9] = test system: umbrella sedge (Cyperus difformis); assay: Test C flooded paddy test; settings: Flood, scale 0 to 100
Method: as §3

[10] = test system: Surinam grass (Brachiaria decumbens); assay: Test B pre/postemergence
From the text: (§4) Seeds selected from barnyardgrass (Echinochloa crus-galli), Surinam grass (Brachiaria decumbens), cocklebur (Xanthium strumarium), corn (Zea mays), crabgrass (Digitaria sanguinalis), giant foxtail (Setaria faberii), lambsquarters (Chenopodium album), morningglory (Ipomoea coccinea), pigweed (Amaranthus retroflexus), velvetleaf (Abutilon theophrasti), and wheat (Triticum aestivum) were planted and treated preemergence with test chemicals formulated in a non-phytotoxic solvent mixture which included a surfactant.
(§5) At the same time, plants selected from these crop and weed species and also blackgrass (Alopecurus myosuroides) and wild oat (Avena fatua) were treated with postemergence applications of test chemicals formulated in the same manner. Plants ranged in height from 2 to 18 cm (1- to 4-leaf stage) for postemergence treatments. Plant species in the flooded paddy test consisted of rice (Oryza sativa), umbrella sedge (Cyperus difformis), duck salad (Heteranthera limosa) and barnyardgrass (Echinochloa crus-galli) grown to the 2-leaf stage for testing. Treated plants and controls were maintained in a greenhouse for 13 to 15 days, after which time all species were compared to controls and visually evaluated. Plant response ratings, summarized in Table B, are based on a scale of 0 to 100 where 0 is no effect and 100 is complete control. A dash (-) response means no test result.

[11] = test system: barnyardgrass (Echinochloa crus-galli); assay: Test B pre/postemergence
From the text: as §4, §5

[12] = test system: lambsquarters (Chenopodium album); assay: Test B pre/postemergence
From the text: as §4, §5

[13] = test system: giant foxtail (Setaria faberii); assay: Test B pre/postemergence
From the text: as §4, §5

[14] = test system: crabgrass (Digitaria sanguinalis); assay: Test B pre/postemergence
From the text: as §4, §5

[15] = test system: wheat (Triticum aestivum); assay: Test B pre/postemergence
From the text: as §4, §5

[16] = test system: velvetleaf (Abutilon theophrasti); assay: Test B pre/postemergence
From the text: as §4, §5

corn (Zea mays) = assay: Test B pre/postemergence
From the text: as §4, §5

[17] = test system: pigweed (Amaranthus retroflexus); assay: Test B pre/postemergence
From the text: as §4, §5

[18] = test system: morningglory (Ipomoea coccinea); assay: Test B pre/postemergence
From the text: as §4, §5

[19] = test system: cocklebur (Xanthium strumarium); assay: Test B pre/postemergence
From the text: as §4, §5

[20] = 125 g ai/ha, scale 0 to 100 (0 no effect, 100 complete control)
[21] = Postemergence, 125 g ai/ha, scale 0 to 100 (0 no effect, 100 complete control)
[22] = Postemergence, 500 g ai/ha, scale 0 to 100
[23] = Preemergence, 125 g ai/ha, scale 0 to 100 (0 no effect, 100 complete control)
[24] = Preemergence, 500 g ai/ha, scale 0 to 100 (0 no effect, 100 complete control)

With `CC(C)OC(=O)c1nc(C2CC2)nc(N)c1Br` [Compound 14] the “Oat, Wild plant response rating” value (wild oat (Avena fatua); [20]) was 20, the “Plant response rating, Oat, Wild” value (wild oat (Avena fatua); 500 g ai/ha, scale 0 to 100) was 70 and the “Blackgrass plant response rating” value [1, 20] was 30. The “Plant response rating, Blackgrass” value ([1]; 500 g ai/ha, scale 0 to 100) was 60, the “Plant response rating, Barnyardgrass” value [2] was 80 and the “Plant response rating, Rice” value (rice (Oryza sativa) [3]) was 20. For the same compound, the “Plant response rating, Ducksalad” value [4] was 80, the “Plant response rating, Sedge, Umbrella” value [5] was 50 and the “Plant response rating, Barnyardgrass” value ([6]; 62 g ai/ha, scale 0 to 100) was 0. For the same compound, the “Plant response rating, Barnyardgrass” value ([6]; 125 g ai/ha, scale 0 to 100) was 0, the “Plant response rating, Barnyardgrass” value ([6]; 250 g ai/ha, scale 0 to 100) was 0 and the “Plant response rating, Barnyardgrass” value ([6]; 500 g ai/ha, scale 0 to 100 (0 no effect, 100 complete control)) was 45. The “Plant response rating, Rice” value (rice (Oryza sativa) [7]; 62 g ai/ha) was 0, the “Plant response rating, Rice” value (rice (Oryza sativa) [7]; 125 g ai/ha) was 0 and the “Plant response rating, Rice” value (rice (Oryza sativa) [7]; 250 g ai/ha) was 0. For the same compound, the “Plant response rating, Rice” value (rice (Oryza sativa) [7]; 500 g ai/ha) was 0, the “Plant response rating, Ducksalad” value ([8]; 62 g ai/ha) was 0 and the “Plant response rating, Ducksalad” value ([8]; 125 g ai/ha) was 40. The “Plant response rating, Ducksalad” value ([8]; 250 g ai/ha) was 45, the “Plant response rating, Ducksalad” value ([8]; 500 g ai/ha) was 55 and the “Plant response rating, Sedge, Umbrella” value ([9]; 62 g ai/ha) was 0. For the same compound, the “Plant response rating, Sedge, Umbrella” value ([9]; 125 g ai/ha) was 0, the “Plant response rating, Sedge, Umbrella” value ([9]; 250 g ai/ha) was 0 and the “Plant response rating, Sedge, Umbrella” value ([9]; 500 g ai/ha) was 30. The “Surinam Grass plant response rating” value [10, 21] was 10, the “Plant response rating, Surinam Grass” value [10, 22] was 50 and the “Plant response rating, Surinam Grass” value [10, 23] was 40. The “Surinam Grass plant response rating” value [10, 24] was 80, the “Barnyardgrass plant response rating” value [11, 21] was 30 and the “Plant response rating, Barnyardgrass” value [11, 22] was 90. For the same compound, the “Plant response rating, Barnyardgrass” value [11, 23] was 10, the “Barnyardgrass plant response rating” value [11, 24] was 80 and the “Lambsquarters plant response rating” value [12, 21] was 100. For the same compound, the “Plant response rating, Lambsquarters” value [12, 22] was 100, the “Plant response rating, Lambsquarters” value [12, 23] was 90 and the “Lambsquarters plant response rating” value [12, 24] was 100. For the same compound, the “Foxtail, Giant plant response rating” value [13, 21] was 20, the “Plant response rating, Foxtail, Giant” value [13, 22] was 50 and the “Plant response rating, Foxtail, Giant” value [13, 23] was 30. The “Foxtail, Giant plant response rating” value [13, 24] was 80, the “Crabgrass plant response rating” value [14, 21] was 10 and the “Plant response rating, Crabgrass” value [14, 22] was 30. The “Plant response rating, Crabgrass” value [14, 23] was 10, the “Crabgrass plant response rating” value [14, 24] was 80 and the “Wheat plant response rating” value [15, 21] was 20. For the same compound, the “Plant response rating, Wheat” value [15, 22] was 50, the “Plant response rating, Wheat” value [15, 23] was 40 and the “Wheat plant response rating” value [15, 24] was 50. For the same compound, the “Velvetleaf plant response rating” value [16, 21] was 50, the “Plant response rating, Velvetleaf” value [16, 22] was 70 and the “Plant response rating, Velvetleaf” value [16, 23] was 60. For the same compound, the “Velvetleaf plant response rating” value [16, 24] was 80, the “Corn plant response rating” value (corn (Zea mays); [21]) was 30 and the “Plant response rating, Corn” value (corn (Zea mays); [22]) was 70. For the same compound, the “Plant response rating, Corn” value (corn (Zea mays); [23]) was 0, the “Corn plant response rating” value (corn (Zea mays); [24]) was 70 and the “Pigweed plant response rating” value [17, 21] was 80. The “Plant response rating, Pigweed” value [17, 22] was 90, the “Plant response rating, Pigweed” value [17, 23] was 80 and the “Pigweed plant response rating” value [17, 24] was 90. The “Morningglory plant response rating” value [18, 21] was 100, the “Plant response rating, Morningglory” value [18, 22] was 100 and the “Plant response rating, Morningglory” value [18, 23] was 70. For the same compound, the “Morningglory plant response rating” value [18, 24] was 100, the “Cocklebur plant response rating” value [19, 21] was 50 and the “Plant response rating, Cocklebur” value [19, 22] was 70. The “Plant response rating, Cocklebur” value [19, 23] was 60 and the “Cocklebur plant response rating” value [19, 24] was 80.
